Laboratory results from patent US7981928B2, “Chemotherapy method using x-rays” (Nanodynamics, Inc., priority 2002, dated 2011).

Columns and labels:
mice = conditions: cited from earlier work
neuroblastoma lines = assay: nuclear chemotherapy with 77BrdC on neuroblastoma lines; format: cell-based; conditions: ten neuroblastoma lines tested; H4U blockage
Method: An investigation of a method called “nuclear chemotherapy” was done many years previously at Sloan-Kettering Research Institute in New York, by Dr. Chia-Gee Wang and Dr. Lawrence Helson. The research was done using ^77BrdC, where ^77Br (half-life at 57 hours) would undergo a K-capture and deliver 10^6 or more Gy at a small distance. The […] of BrdC to BrdU can be blocked by the non-toxic H4U and therefore excluding BrdC from being incorporated into the DNA pool. Certain transformed cells, on the other hand, would make use of a more primitive kinase to bypass the H4U blockage, and incorporate BrdC to form BrdU. The ^77Br was made by adding an α particle to ^75As in a facility in the U.K. ^77Br was obtained in liquid solution, and ^77BrdC was made. […] The cells simply stopped mitosis while continuing most of the cellular functions. The Auger electrons from the ^77BrdU delivered such a high dose of the DNA duplex that no cellular repair was possible.

cells = conditions: cited from earlier work

Compound: O=C([O-])CN(CCN(CC(=O)[O-])CC(=O)O)CCN(CC(=O)[O-])CC(=O)O.[Gd+3] [Gd-DTPA]
- LD50 in mice (mice): ~10 mmol/kg

Compound: Nc1nc(=O)n([C@H]2C[C@H](O)[C@@H](CO)O2)cc1[77Br] [^77BrdC]
- sensitivity of neuroblastoma lines (neuroblastoma lines): two of the ten lines were sensitive

Compound: 7-DTPA-Paclitaxel
- retention of paclitaxel potency in the cells (cells): retain much of the paclitaxel potency
